Values quoted from earlier work, collected in patent US20170143622A1, “STABLE LIQUID READY-TO-USE INJECTABLE FORMULATION OF BORTEZOMIB” (DR. REDDY'S LABORATORIES LIMITED, priority 2014, published 2017).
Read-outs that look alike come from different tables or passages of the source.

Key:
[1] = polyethylene glycol (PEG)
[2] = 25° C.
[3] = ethanol composition, 40° C. and 75% relative humidity, 1 month

For `CC(C)C[C@H](NC(=O)[C@H](Cc1ccccc1)NC(=O)c1cnccn1)B(O)O` [bortezomib, [(1R)-3-methyl-1-[[(2S)-1-oxo-3-phenyl-2[(pyrazinylcarbonyl)amino]propyl]amino]butyl]boronic acid], the “Solubility in PEG” value [1] is given as “insolubility”, the Degradation ([2]; ethanol: normal saline solution (2:98, pH 2.8), bortezomib 0.5 mg/ml, 1 month) is given as 20% and the Degradation ([2]; polyethylene glycol (PEG) 300: Ethanol:Water (40:10:50), 24 hours) is given as no more than 20%. For the same molecule, the Degradation ([2]; propylene glycol (PG): Ethanol:Water (50:10:40), 8 months) was 20% and the “Bortezomib degraded to” value [3] was 76%.
